{"source": "patent US9266817B2", "about": "“Catecholamine derivatives for obesity and neurological disorders” (EMORY UNIVERSITY, priority 2009, dated 2016)", "key": {"TrkB [1]": {"biological_target": "T1, TrkB (Rattus norvegicus, UniProt Q63604)", "T1 construct": "endogenous in cells; host or cells: primary rat cortical and hippocampal neurons", "T1 sequence (Q63604 32-821)": "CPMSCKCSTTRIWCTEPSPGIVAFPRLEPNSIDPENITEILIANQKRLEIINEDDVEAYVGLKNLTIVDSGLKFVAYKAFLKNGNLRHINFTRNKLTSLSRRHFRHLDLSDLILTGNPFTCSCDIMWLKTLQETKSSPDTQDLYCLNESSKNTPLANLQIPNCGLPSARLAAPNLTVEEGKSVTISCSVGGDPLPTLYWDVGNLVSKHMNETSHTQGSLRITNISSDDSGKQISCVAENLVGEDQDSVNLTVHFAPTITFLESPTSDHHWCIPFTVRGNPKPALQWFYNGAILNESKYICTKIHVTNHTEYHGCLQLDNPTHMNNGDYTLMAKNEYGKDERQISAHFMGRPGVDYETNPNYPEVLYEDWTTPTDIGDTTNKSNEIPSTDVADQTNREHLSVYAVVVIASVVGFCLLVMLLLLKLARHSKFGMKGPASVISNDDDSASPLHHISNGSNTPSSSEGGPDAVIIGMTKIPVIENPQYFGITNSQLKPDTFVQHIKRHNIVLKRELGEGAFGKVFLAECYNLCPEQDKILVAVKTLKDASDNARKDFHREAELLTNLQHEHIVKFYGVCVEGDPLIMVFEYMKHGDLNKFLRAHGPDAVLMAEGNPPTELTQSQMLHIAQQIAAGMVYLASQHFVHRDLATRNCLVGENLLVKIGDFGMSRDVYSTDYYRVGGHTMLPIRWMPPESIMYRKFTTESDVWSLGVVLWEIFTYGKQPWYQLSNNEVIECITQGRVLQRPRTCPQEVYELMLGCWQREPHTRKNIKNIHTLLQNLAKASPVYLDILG", "test": "Immunofluorescent staining with anti-phospho-TrkB Y816 in primary hippocampal neurons", "assay_type": "cell-based", "conditions": "300 nM, 30 min", "protocol": "Primary Rat Cortical and Hippocampal Neuron Cultures\nPrimary hippocampal neurons were seeded on poly-L-lysine coated coverslips in a 12-well plate. After 7 days in vitro, the neurons were treated with 100 ng/ml BDNF or variety of neurotransmitters and 7,8-dihydroxyflavone compound (500 nM) for 30 min, and then washed with PBS. Cells were fixed with 3% formaldehyde in PBS at room temperature for 15 min. The cells were then permeabilized and blocked by 0.4% Triton X-100 and 2% FBS in PBS at room temperature for 15 minutes, washed with PBS three times and treated with anti-MAP2 (1:200) and anti-phospho-TrkB antibodies (1:100). After staining with FITC- or Rhodamine-conjugated secondary antibody, the coverslips were mounted on slides. Fluorescent images were taken by OLYMPUS IX71 fluorescence microscope (Olympus; Center Valley, Pa.).\n(§1) To explore whether monoamine neurotransmitters, including catecholamines (see, e.g., FIG. 1), could stimulate TrkB activation, hippocampal neurons were treated with 300 nM of catecholamines, serotonin, and melatonin for 30 min."}, "TrkB [2]": {"biological_target": "T1, TrkB", "test": "Screening of catecholamine derivatives for TrkB activation in primary cortical neurons (anti-p-TrkB-Y-816 immunoblot)", "assay_type": "cell-based", "conditions": "500 nM, 30 min", "protocol": "Catecholamines can directly bind to the kinase domain of the TrkB receptor and activate it. However, the catecholamines are not able to cross through the blood brain barrier. […] Cortical neurons (7 DIV cortical neurons from 18 day old Sprague Dawley rat embryos) were treated with 500 nM of the selected compound for 30 min and cell lysates were prepared. The cell lysates ([…]) were analyzed for TrkB activation by immunoblotting with anti-p-TrkB-Y-816 antibody.\nCatecholamine derivatives as described herein, including Compound I-2, Compound I-5, Compound I-7, Compound I-8, Compound I-9, Compound I-10, Compound I-11, Compound I-14, Compound I-15, Compound I-17, Compound I-18, and isoproterenol, were screened for TrkB activation in primary cortical neurons. Cortical neurons (7 DIV cortical neurons from 18 day old Sprague Dawley rat embryos) were treated with 500 nM of the selected compound for 30 min and cell lysates were prepared. The cell lysates ([…]) were analyzed for TrkB activation by immunoblotting with anti-p-TrkB-Y-816 antibody."}, "TrkB [3]": {"system": "TrkB", "test": "TrkB activation in mouse brain after administration of catecholamine derivatives (anti-p-TrkB-Y-816 immunoblot)", "assay_type": "in vivo", "conditions": "50 mg/kg orally (in saline), C57BL/6J mice", "protocol": "To explore whether these compounds could stimulate TrkB in vivo, 50 mg/kg of Compound I-11, Compound I-8, and Compound I-2 (2-(methylamino)-3′,4′-dihydroxy-acetophenone) were each orally administered (in saline) to 2-month-old C57BL/6J mice. The mice were sacrificed at different time points and TrkB activation in the brains of the mice was monitored by immunoblotting with anti-p-TrkB-Y-816 antibody.\nTo determine the minimal required dosages for Compound I-11 and Compound I-8, different doses of the compounds were each orally administered to mice. The mice were sacrificed after 4 hours, and the brain lysates were analyzed by immunoblotting with anti-p-TrkB-Y-816 antibody.\nTo search for orally bioactive catecholamines, catecholamine derivatives described herein were screened using primary neuronal cultures. The in vitro active compounds, Compounds I-8 and I-11, were adminstered into two to three month old C57BL/6J mice orally, intraperitoneally, and in drinking water. For oral administration, the mice were administered 0 mg (control), 5 mg, 10 mg, 20 mg, or 50 mg of Compound I-8 or Compound I-11. After 4 hours, TrkB phosphorylation in mouse brain was monitored by analyzing the brain lysates using immunoblotting with anti-p-TrkB-Y-816 antibody. The ratios of p-TrK/total TrkB were quantified (FIG. 27A). For intraperitoneal administration, 50 mg/kg of Compound I-8 or Compound I-11 were intraperitoneally injected into the mice. The brain lysates were prepared at different times (0 hr, 1 hr, 2 hr, 4 hr, and 8 hr) and were analyzed by immunoblotting with anti-p-TrkB-Y-816 antibody (FIG. 27B). Compound I-8 and Compound I-11 were dissolved in drinking water and given to mice. After 24 h, the brain lysates were prepared and analyzed by immunoblotting with anti-p-TrkB-Y-816 antibody (FIG. 27C). […] Therefore, these compounds are useful in treating various neurological or neuropsychiatric diseases as described herein."}, "TrkB [4]": {"biological_target": "T1, TrkB", "test": "TrkB activation in cortical neurons after pretreatment with antibodies, receptor antagonists, transporter inhibitors or EDTA (anti-p-TrkB-Y-816 immunoblot)", "assay_type": "cell-based", "text": "(§2) Both antidepressants and exercise increase hippocampal BDNF mRNA expression through enhanced 5-HT and/or NE neurotransmission (Siuciak et al., Pharmacol. Biochem. Behav., 56:131-137, 1997; Dias et al., Neuropharmacology, 45:553-563, 2003; Ivy et al., Pharmacol. Biochem. Behav., 75:81-88, 2003; Garza et al., Pharmacol. Biochem. Behav., 77:209-220, 2004). If catecholamines activated TrkB signaling indirectly by promoting BDNF generation, then scavenging BDNF with its specific antibody would be expected to diminish catecholamines-mediated activation of TrkB. Cultured cortical neurons were pretreated with BDNF-IgG for 30 minutes followed by exposure to BDNF (10 ng/ml) or catecholamines (100 nM) for 15 minutes. […] It was then determined whether catecholamines could activate TrkB in neurons cultured from mice carrying a null mutation of BDNF.\nTo further investigate the specificity of catecholamines in inducing TrkB activation, cortical neurons were pretreated with control IgG or norepinephrine IgG, a rabbit polyclonal antibody for norepinephrine, followed by catecholamines.\n(§3) It was then determined whether catecholamines could activate TrkB in neurons cultured from mice carrying a null mutation of NET.\n(§4) The cell lysates were analyzed by immunoblotting with anti-p-TrkB-Y-816.\nas §4\nA group of primary cortical neurons were pretreated with 1 mM EDTA, and another group of primary cortical neurons were not pretreated. Both groups of primary cortical neurons were then treated with either Zn (100 μM) or a catecholamine (100 nM) for 15 minutes. The neuronal cell lysates were analyzed by immunoblotting with anti-p-TrkB-Y-816 antibody."}, "TrkB [5]": {"biological_target": "T1, TrkB", "test": "Immunoblotting of TrkB phosphorylation in primary cortical neurons treated with catecholamines", "assay_type": "cell-based", "conditions": "for TrkB activation (immunoblotting of neuronal lysates): primary neurons", "protocol": "Primary cultured rat cortical neurons were prepared as follows. E17 rat pups were decapitated and cortex was extirpated, cross chopped and suspended by pipetting for separation in 5% fetal calf serum (FCS), 5% horse serum (HS) DMEM. The cell suspension was then centrifuged at 250×g for 5 min. This operation was repeated. Cells were seeded into polyethyleneimine-coated 10 cm^2 dishes and 12-well plates including coated-coverslips and incubated at 37° C. in 5% CO2/95% air. After 3 hours, the culture medium was changed to Neurobasal containing B-27 supplement (Invitrogen; Carlsbad, Calif.) and incubated for 4 days. For maintenance, half of the culture medium was changed to fresh Neurobasal/B27 in every 4 days. After 1 week, the dished cultured neurons were ready for use.\nas §1"}, "TrkB [6]": {"biological_target": "T2, TrkB (Mus musculus, UniProt P15209, F616A)", "T2 construct": "from tissue; host or cells: mouse brain", "T2 sequence (P15209 32-821 F616A)": "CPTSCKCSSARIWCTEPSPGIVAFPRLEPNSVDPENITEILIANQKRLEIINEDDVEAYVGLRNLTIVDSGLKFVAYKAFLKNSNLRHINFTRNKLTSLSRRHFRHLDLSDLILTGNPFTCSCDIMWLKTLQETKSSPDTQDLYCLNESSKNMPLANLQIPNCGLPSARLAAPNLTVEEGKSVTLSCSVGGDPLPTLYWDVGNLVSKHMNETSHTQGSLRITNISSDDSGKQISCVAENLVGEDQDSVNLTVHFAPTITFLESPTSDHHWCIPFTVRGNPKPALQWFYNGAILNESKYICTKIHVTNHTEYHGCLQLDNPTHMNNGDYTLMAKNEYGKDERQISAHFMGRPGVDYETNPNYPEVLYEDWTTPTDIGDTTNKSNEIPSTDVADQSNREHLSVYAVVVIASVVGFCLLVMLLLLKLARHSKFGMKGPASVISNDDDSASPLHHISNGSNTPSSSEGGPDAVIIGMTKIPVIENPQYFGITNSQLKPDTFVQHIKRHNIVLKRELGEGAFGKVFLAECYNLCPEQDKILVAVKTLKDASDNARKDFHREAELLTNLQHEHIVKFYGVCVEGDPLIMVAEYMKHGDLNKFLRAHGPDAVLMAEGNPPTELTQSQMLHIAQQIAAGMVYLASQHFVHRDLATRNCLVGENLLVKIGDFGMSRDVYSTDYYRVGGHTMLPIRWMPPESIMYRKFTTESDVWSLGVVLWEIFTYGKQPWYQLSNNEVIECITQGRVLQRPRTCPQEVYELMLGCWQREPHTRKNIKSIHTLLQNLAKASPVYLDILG", "assay_type": "in vivo", "conditions": "L-DOPA 50 mg/kg, DOPS 100 mg/kg, 1NMPP1 50 μM", "protocol": "The DOPS concentration was 20 mg/ml, the vitamin C concentration was 2 mg/ml, and the benserazide concentration was 5 mg/ml. The vitamin C prevents oxidation of the DOPS, and the benserazide is a peripheral inhibitor of AADC and restricts the production of NE from DOPS to the brain. The compounds were added to a tube, and 20 μl of 10 M HCl was added to each ml of DOPS solution. The appropriate amount of water was added to the tube, and then HCl was added to achieve the desired volume. For example, to make 1 mL of a DOPS solution, 20 mg DOPS, 2 mg vitamin C, and 5 mg benserazide were added to a tube, followed by 980 μL of water and 20 μL of 10 M HCl. The solution was vortexed until all DOPS was dissolved. The DOPS solution was injected subcutaneously in a volume of 50 μl/g of mouse. The appropriate amount of DOPS solution was pipetted into a clean tube, followed by the amount of 10 M NaOH required to exactly neutralize the HCl. The solution was then shaken. The amount of 10 M NaOH is the weight of the mouse in microliters. For example, for a 20 g mouse, pipet 1 ml of the DOPS solution is pipetted into a tube and 20 μL of 10 M NaOH is added. For a 30 g mouse, 1.5 mL of the DOPS solution is pipetted into a tube and 30 μl of 10 M NaOH is added. Two to four month-old TrkBF616A mice were pretreated with 1NMPP1 in drinking water (50 μM) 1 day before L-DOPA (50 mg/kg) or DOPS (100 mg/kg) intraperitoneal injection. At times of 2 hours and 5 hours after drug administration, the L-DOPA or DOPS-treated mice were sacrificed, respectively. The brain lysates were prepared and analyzed by immunoblotting against anti-phospho-TrkB Y816 and TrkA Y794 antibodies.\n(§5) TrkB F616A mice were pretreated with 1NMPP1 (50 μM) before L-DOPA or DOPS administration."}, "TrkB [7]": {"system": "TrkB", "assay_type": "in vivo", "conditions": "BDNF conditional knockout mice, compared to vehicle control"}, "TrkB [8]": {"biological_target": "T3, TrkB (Mus musculus, UniProt P15209)", "T3 construct": "endogenous in cells; host or cells: primary cortical neurons from BDNF-null, TrkB +/- cross, TrkC knockout and NET -/- mice", "T3 sequence (P15209 32-821)": "as the sequence (P15209 32-821 F616A) above, with A585F counted along it", "assay_type": "cell-based, mice", "conditions": "compared to wild-type control neurons", "protocol": "as §3"}, "TrkB [9]": {"biological_target": "T3, TrkB", "test": "TrkB activation in cortical neurons cultured from BDNF-null mice", "assay_type": "cell-based", "conditions": "15 min", "text": "as §2"}, "TrkB F616A": {"biological_target": "T4, TrkB F616A (Mus musculus, UniProt P15209, F616A)", "T4 construct": "endogenous in cells; host or cells: primary cortical neurons from TrkB F616A knock-in mice", "T4 sequence (P15209 32-821 F616A)": "as the sequence (P15209 32-821 F616A) above", "test": "TrkB phosphorylation in TrkB F616A or TrkA F592A cortical neurons pretreated with K252a or 1NMPP1", "assay_type": "cell-based, mice", "conditions": "TrkB F616A knock-in cortical neurons", "protocol": "as §5\nOn day 7, the primary cortical neurons were pretreated with 100 nM K252a or 1NMPP1 for 30 min, followed by 500 nM ADPP and DDAP. Cell lysates were analyzed by Western blotting."}}}
{"smiles": "O=C(O)Cc1c[nH]c2ccc(O)cc12", "note": "[Compound 5-HIAA, 5-hydroxyindoleacetic acid]", "values": [{"measurement": "TrkB tyrosine phosphorylation (immunofluorescent staining)", "setting": "TrkB [1]", "result": "had no effect"}]}
{"smiles": "NCCc1c[nH]c2ccc(OS(=O)(=O)O)cc12", "note": "[Compound 5-HT-sulfate, 5-HT-sulfate]", "values": [{"measurement": "TrkB tyrosine phosphorylation (immunofluorescent staining)", "setting": "TrkB [1]", "result": "had no effect"}]}
{"smiles": "CNCC(=O)c1ccc(O)c(O)c1", "note": "[Compound I-2, 2-(methylamino)-3′,4′-dihydroxy-acetophenone]", "values": [{"measurement": "TrkB activation in primary cortical neurons", "setting": "TrkB [2]", "result": "display activity"}, {"measurement": "TrkB activation in the brains of the mice", "setting": "TrkB [3]", "result": "failed to activate TrkB"}]}
{"smiles": "CN[C@@H](C(N)=O)C(=O)c1ccc(O)c(O)c1", "note": "[Compound I-7]", "values": [{"measurement": "TrkB activation in primary cortical neurons", "setting": "TrkB [2]", "result": "display activity"}]}
{"smiles": "CN[C@@H](C(=O)N(C)C)[C@@H](O)c1ccc(O)c(O)c1", "note": "[Compound I-15]", "values": [{"measurement": "TrkB activation in primary cortical neurons", "setting": "TrkB [2]", "result": "display activity"}]}
{"smiles": "O=C(O)CN(CCN(CC(=O)O)CC(=O)O)CC(=O)O", "note": "[EDTA]", "values": [{"measurement": "Effect of EDTA on stimulatory activity of TrkB activation by Zn", "setting": "TrkB [4]; 1 mM EDTA, Zn 100 μM, 15 minutes", "result": "blocked"}]}
{"smiles": "c1ccc(CCCN2CCN(CCOC(c3ccccc3)c3ccccc3)CC2)cc1", "note": "[GBR12935]", "values": [{"measurement": "Effect of inhibitor on dopamine-mediated TrkB activation", "setting": "TrkB [4]; cortical neurons", "result": "significantly blocked"}]}
{"smiles": "N[C@@H](Cc1ccc(O)c(O)c1)C(=O)O", "note": "[L-DOPA, L-dihydroxyphenylalanine]", "values": [{"measurement": "TrkB activation in primary cultured neurons", "setting": "TrkB [5]", "result": "rapidly induced TrkB activation"}, {"measurement": "TrkB tyrosine phosphorylation/activation in mice", "setting": "TrkB [6]", "result": "provoked evident TrkB activation"}, {"measurement": "TrkB activation in BDNF -/- cortex", "setting": "TrkB [7]", "result": "strongly triggered TrkB activation"}]}
{"smiles": "NCCc1ccc(O)c(O)c1", "note": "[dopamine]", "values": [{"measurement": "TrkB activation in NET -/- neurons", "setting": "TrkB [8]", "result": "notable TrkB activation"}]}
{"smiles": "COc1ccc2[nH]cc(CCNC(C)=O)c2c1", "note": "[melatonin]", "values": [{"measurement": "TrkB tyrosine phosphorylation (immunofluorescent staining)", "setting": "TrkB [1]", "result": "did not"}, {"measurement": "TrkB activation (immunoblotting of neuronal lysates)", "setting": "TrkB [5]", "result": "not activated"}]}
{"smiles": "NCCc1c[nH]c2ccc(O)cc12", "note": "[serotonin]", "values": [{"measurement": "TrkB tyrosine phosphorylation (immunofluorescent staining)", "setting": "TrkB [1]", "result": "did not"}, {"measurement": "TrkB activation (immunoblotting of neuronal lysates)", "setting": "TrkB [5]", "result": "not activated"}, {"measurement": "Activation of TrkB in BDNF-null cortical neurons", "setting": "TrkB [9]", "result": "had no effect"}, {"measurement": "TrkB phosphorylation provoked by the substance", "setting": "TrkB F616A", "result": "had no effect"}]}
